Patent publication US20220275274A1, “NEUTRAL FLUORESCENT MITOCHONDRIAL MARKER BASED ON NITROGEN-CONTAINING HETEROCYCLE, PREPARATION METHOD AND USE THEREOF” (SOOCHOW UNIVERSITY, priority 2020, published 2022)

Key:
[1] = tested on: HeLa cells; assay: cell imaging, colocalization with red mitochondrial marker Mito Tracker Red CMXRos; type: cell-based; conditions: dye 1 μM, vs Mito Tracker Red CMXRos (100 nm); for colocalization coefficient: blue and red channel
Method: (§1) Dye 1a was formulated into a mother liquor in DMSO (dimethyl sulfoxide), and then added to a conventional cell culture medium to give a concentration of dye 1a in the cell culture medium of 1 μM. L929 cells and HeLa cells were respectively co-cultured for 10 min in an incubator at saturated humidity, 37° C., and 5% CO2 (the experiment was same below). The existing red mitochondrial marker Mito Tracker® Red CMXRos (100 nm) was added, and the cells were co-incubated for another 10 min, washed three times with a PBS buffer, and imaged under a laser confocal microscope. In the blue channel, light of 405 nm was used for excitation, and a fluorescence signal in the range of 410-500 nm was collected; and in the red channel, light of 561 nm was used for excitation, and a fluorescence signal in the range of 570-750 nm was collected. […] The results are shown in FIG. 14, where (a) and (g) are the bright-field images; (b) and (h) are the cell images with dye 1a; (c) and (i) are the cell images with the red mitochondrial marker; (d) and (j) are overlapped images with blue channel and red channel, (e) and (k) show the fluorescence intensity of the ROI line in the overlapped images; and (f) and (1) show colocalization assays, with a colocalization coefficient of 0.90 (L929) and 0.84 (HeLa) respectively.
(§2) The experiment method with dye 1b, dye 1c, dye 2a, dye 2b, and dye 2c (1 μM) is the same as that with dye 1a above, except that dye 1a is replaced. In FIG. 15, (a) and (g) are the bright-field images; (b) and (h) are the cell images with dye 1b; (c) and (i) are the cell images with the red mitochondrial marker; (d) and (j) are overlapped images with blue channel and red channel, (e) and (k) show the fluorescence intensity of the ROI line in the overlapped images; and (f) and (1) show colocalization assays, with a colocalization coefficient of 0.81 (L929) and 0.83 (HeLa) respectively. In FIG. 16, (a) and (g) are the bright-field images; (b) and (h) are the cell images with dye 1c; (c) and (i) are the cell images with the red mitochondrial marker; (d) and (j) are overlapped images with blue channel and red channel, (e) and (k) show the fluorescence intensity of the ROI line in the overlapped images; and (f) and (1) show a colocalization assay, both having a colocalization coefficient of 0.77. In FIG. 17, (a) and (g) are the bright-field images; (b) and (h) are the cell images with dye 2a; (c) and (i) are the cell images with the red mitochondrial marker; (d) and (j) are overlapped images with blue channel and red channel, (e) and (k) show the fluorescence intensity of the ROI line in the overlapped images; and (f) and (1) show colocalization assays, with a colocalization coefficient of 0.79 (L929) and 0.80 (HeLa) respectively. In FIG. 18, (a) and (g) are the bright-field images; (b) and (h) are the cell images with dye 2b; (c) and (i) are the cell images with the red mitochondrial marker; (d) and (j) are overlapped images with blue channel and red channel, (e) and (k) show the fluorescence intensity of the ROI line in the overlapped images; and (f) and (1) show colocalization assays, with a colocalization coefficient of 0.85 (L929) and 0.79 (HeLa) respectively. In FIG. 19, (a) and (g) are the bright-field images; (b) and (h) are the cell images with dye 2c; (c) and (i) are the cell images with the red mitochondrial marker; (d) and (j) are overlapped images with blue channel and red channel, (e) and (k) show the fluorescence intensity of the ROI line in the overlapped images; and (f) and (1) show colocalization assays, with a colocalization coefficient of 0.82 (L929) and 0.84 (HeLa) respectively.
Dye 4 was formulated into a mother liquor in DMSO, and then added to a conventional cell culture medium to give a concentration of dye 4 in the cell culture medium of 1 μM. HeLa cells were co-cultured for 10 min in an incubator at saturated humidity, 37° C., and 5% CO2. […]

[2] = ultraviolet absorption and fluorescence emission in chloroform; type: physicochemical; conditions: 10 μM; for maximum emission wavelength (fluorescence spectrum): excitation wavelength and slit width per dye
Method: The ultraviolet absorption and fluorescence emission of the dyes prepared in the examples and comparative examples (at a concentration of 10 μM) in chloroform were tested. The horizontal ordinate is the wavelength, and the vertical ordinate is the absorbance and fluorescence intensity, respectively.
In the ultraviolet-visible absorption spectrum, dye 1a has the maximum absorption at 378 nm; and in the fluorescence spectrum, dye 1a has the highest fluorescence intensity at 452 nm, where the excitation wavelength is 370 nm, and the slit width is 3 nm/1.5 nm. In the ultraviolet-visible absorption spectrum, dye 1b has a maximum absorption wavelength of 382 nm; and in the fluorescence spectrum, dye 1b has a maximum emission wavelength of 485 nm, where the excitation wavelength is 374 nm, and the slit width is 3 nm/1.5 nm. In the ultraviolet-visible absorption spectrum, dye 1c has a maximum absorption wavelength of 385 nm; and in the fluorescence spectrum, dye 1c has a maximum emission wavelength of 454 nm, where the excitation wavelength is 380 nm, and the slit width is 3 nm/1.5 nm. In the ultraviolet-visible absorption spectrum, dye 2a has the maximum absorption at 364 nm; and in the fluorescence spectrum, dye 2a has the highest fluorescence intensity at 480 nm, where the excitation wavelength is 374 nm, and the slit width is 3 nm/1.5 nm. In the ultraviolet-visible absorption spectrum, dye 2b has a maximum absorption wavelength of 360 nm; and in the fluorescence spectrum, dye 2b has a maximum emission wavelength of 458 nm, where the excitation wavelength is 370 nm, and the slit width is 3 nm/1.5 nm. In the ultraviolet-visible absorption spectrum, dye 2c has a maximum absorption wavelength of 356 nm; and in the fluorescence spectrum, dye 2c has a maximum emission wavelength of 441 nm, where the excitation wavelength is 360 nm, and the slit width is 3 nm/3 nm. In the ultraviolet-visible absorption spectrum, dye 3a has the maximum absorption at 548 nm; and in the fluorescence spectrum, dye 3a has the highest fluorescence intensity at 606 nm, where the excitation wavelength is 560 nm, and the slit width is 1.5 nm/1.5 nm. In the ultraviolet-visible absorption spectrum, dye 3b has a maximum absorption wavelength of 549 nm; and in the fluorescence spectrum, dye 3b has a maximum emission wavelength of 608 nm, where the excitation wavelength is 540 nm, and the slit width is 1.5 nm/1.5 nm. In the ultraviolet-visible absorption spectrum, dye 3c has a maximum absorption wavelength of 554 nm; and in the fluorescence spectrum, dye 3c has a maximum emission wavelength of 611 nm, where the excitation wavelength is 540 nm, and the slit width is 1.5 nm/1.5 nm. In the ultraviolet-visible absorption spectrum, dye 3d has a maximum absorption wavelength of 556 nm; and in the fluorescence spectrum, dye 3d has a maximum emission wavelength of 619 nm, where the excitation wavelength is 570 nm, and the slit width is 1.5 nm/1.5 nm. In the ultraviolet-visible absorption spectrum, dye 4 has a maximum absorption wavelength of 501 nm; and in the fluorescence spectrum, dye 4 has a maximum emission wavelength of 515 nm, where the excitation wavelength is 495 nm, and the slit width is 1.5 nm/1.5 nm. The above UV absorption and fluorescence emission test methods are conventional methods.

[3] = tested on: L929 cells; assay: cell imaging, colocalization with red mitochondrial marker Mito Tracker Red CMXRos; type: cell-based; conditions: dye 1 μM; for mitochondria labeling ability (blue mitochondrial marker): L929 (normal) and HeLa (cancer) cells, vs Mito Tracker Red CMXRos; for colocalization coefficient: L929 cells, vs Mito Tracker Red CMXRos (100 nm), blue and red channel
Method: as §1, §2

Structure (SMILES)	overlap with the red mitochondrial marker ([1]; green and red channel)	maximum absorption wavelength (ultraviolet-visible absorption spectrum) [2] [nm]	maximum emission wavelength (fluorescence spectrum) [2] [nm]	colocalization coefficient [1]	mitochondria labeling ability (blue mitochondrial marker) [3]	colocalization coefficient [3]
CC1=CC(C)=[N+]2C1=C(c1ccc(-c3ccc4[nH]ncc4c3)cc1)c1c(C)cc(C)n1[B-]2(F)F [dye 4]	cannot be overlapped well with the red mitochondrial marker	501	515	–	–	–
CCCCN1C(=O)c2cccc3c(-c4cnc5[nH]ncc5c4)ccc(c23)C1=O [dye 2c]	–	356	441	0.84	mitochondria labeling ability in both normal cells and cancer cells	0.82
CCN(CC)c1ccc2c(C)c(-c3ccc4[nH]ncc4c3)c(=O)oc2c1 [dye 1a]	–	378	452	0.84	mitochondria labeling ability in both normal cells and cancer cells	0.90
CCCCN1C(=O)c2cccc3c(-c4ccc5[nH]ncc5c4)ccc(c23)C1=O [dye 2a]	–	364	480	0.80	mitochondria labeling ability in both normal cells and cancer cells	0.79
CCN(CC)c1ccc2c(C)c(-c3cnc4[nH]ccc4c3)c(=O)oc2c1 [dye 1b]	–	382	485	0.83	mitochondria labeling ability in both normal cells and cancer cells	0.81
CCCCN1C(=O)c2cccc3c(-c4cnc5[nH]ccc5c4)ccc(c23)C1=O [dye 2b]	–	360	458	0.79	mitochondria labeling ability in both normal cells and cancer cells	0.85
CCN(CC)c1ccc2c(C)c(-c3cnc4[nH]ncc4c3)c(=O)oc2c1 [dye 1c]	–	385	454	0.77	mitochondria labeling ability in both normal cells and cancer cells	0.77
